From ChEMBL document CHEMBL1201862, “PubChem BioAssay data set” (2004) come the findings set out here.

Active and inactive are the calls of the source.

Holding throughout (assay type): functional
Test [1] deals with T1, Sentrin-specific protease 7 (Homo sapiens, UniProt Q9BQF6).
T1 sequence (Q9BQF6 whole entry): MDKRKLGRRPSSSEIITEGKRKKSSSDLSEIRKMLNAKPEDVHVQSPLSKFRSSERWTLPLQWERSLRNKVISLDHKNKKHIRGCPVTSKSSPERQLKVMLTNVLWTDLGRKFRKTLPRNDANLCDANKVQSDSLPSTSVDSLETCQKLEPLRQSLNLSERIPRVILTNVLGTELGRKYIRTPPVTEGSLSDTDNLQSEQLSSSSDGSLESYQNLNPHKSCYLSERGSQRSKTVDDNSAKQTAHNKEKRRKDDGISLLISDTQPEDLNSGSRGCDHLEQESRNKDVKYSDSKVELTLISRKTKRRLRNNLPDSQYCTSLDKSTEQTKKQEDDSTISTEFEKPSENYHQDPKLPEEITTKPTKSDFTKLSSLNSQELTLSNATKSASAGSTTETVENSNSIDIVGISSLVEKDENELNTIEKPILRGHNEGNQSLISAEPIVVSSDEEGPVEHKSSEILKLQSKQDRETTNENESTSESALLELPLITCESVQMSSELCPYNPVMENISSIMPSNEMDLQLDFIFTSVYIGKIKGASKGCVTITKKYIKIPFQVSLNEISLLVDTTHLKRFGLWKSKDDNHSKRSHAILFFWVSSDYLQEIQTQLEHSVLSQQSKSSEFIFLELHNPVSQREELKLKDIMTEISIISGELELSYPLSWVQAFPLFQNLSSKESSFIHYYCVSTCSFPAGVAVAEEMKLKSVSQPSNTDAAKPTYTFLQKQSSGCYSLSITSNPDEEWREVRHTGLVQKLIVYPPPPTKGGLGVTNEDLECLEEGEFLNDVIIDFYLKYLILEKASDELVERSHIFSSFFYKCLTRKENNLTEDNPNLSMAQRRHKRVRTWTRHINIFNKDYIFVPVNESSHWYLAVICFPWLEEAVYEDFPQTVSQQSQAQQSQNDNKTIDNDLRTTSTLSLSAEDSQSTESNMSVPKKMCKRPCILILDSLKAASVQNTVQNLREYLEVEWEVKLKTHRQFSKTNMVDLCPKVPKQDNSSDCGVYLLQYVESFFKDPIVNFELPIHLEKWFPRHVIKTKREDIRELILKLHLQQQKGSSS
Nature of the test: SENP7 protease inhibitors, SAR follow-up, biochemical, luminescence, set 2 (AID 588600).

The target of test [2] is T2, Caspase-3 (Homo sapiens, UniProt P42574).
T2 sequence (P42574 whole entry): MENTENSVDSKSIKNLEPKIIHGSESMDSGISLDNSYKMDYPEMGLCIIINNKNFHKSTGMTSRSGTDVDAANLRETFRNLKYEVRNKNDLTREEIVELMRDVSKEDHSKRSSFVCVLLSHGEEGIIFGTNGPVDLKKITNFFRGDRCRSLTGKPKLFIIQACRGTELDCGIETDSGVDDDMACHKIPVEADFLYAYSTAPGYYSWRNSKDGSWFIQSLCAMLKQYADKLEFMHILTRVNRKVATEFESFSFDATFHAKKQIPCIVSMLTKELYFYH
Nature of the test: caspase-3 inhibitors as off-family protease, SAR follow-up, selectivity assay for SENP protease inhibitor project, biochemical, luminescence, set 2 (AID 588599).

The target of test [3] is T3, Sentrin-specific protease 6 (Homo sapiens, UniProt Q9GZR1).
T3 sequence (Q9GZR1 whole entry): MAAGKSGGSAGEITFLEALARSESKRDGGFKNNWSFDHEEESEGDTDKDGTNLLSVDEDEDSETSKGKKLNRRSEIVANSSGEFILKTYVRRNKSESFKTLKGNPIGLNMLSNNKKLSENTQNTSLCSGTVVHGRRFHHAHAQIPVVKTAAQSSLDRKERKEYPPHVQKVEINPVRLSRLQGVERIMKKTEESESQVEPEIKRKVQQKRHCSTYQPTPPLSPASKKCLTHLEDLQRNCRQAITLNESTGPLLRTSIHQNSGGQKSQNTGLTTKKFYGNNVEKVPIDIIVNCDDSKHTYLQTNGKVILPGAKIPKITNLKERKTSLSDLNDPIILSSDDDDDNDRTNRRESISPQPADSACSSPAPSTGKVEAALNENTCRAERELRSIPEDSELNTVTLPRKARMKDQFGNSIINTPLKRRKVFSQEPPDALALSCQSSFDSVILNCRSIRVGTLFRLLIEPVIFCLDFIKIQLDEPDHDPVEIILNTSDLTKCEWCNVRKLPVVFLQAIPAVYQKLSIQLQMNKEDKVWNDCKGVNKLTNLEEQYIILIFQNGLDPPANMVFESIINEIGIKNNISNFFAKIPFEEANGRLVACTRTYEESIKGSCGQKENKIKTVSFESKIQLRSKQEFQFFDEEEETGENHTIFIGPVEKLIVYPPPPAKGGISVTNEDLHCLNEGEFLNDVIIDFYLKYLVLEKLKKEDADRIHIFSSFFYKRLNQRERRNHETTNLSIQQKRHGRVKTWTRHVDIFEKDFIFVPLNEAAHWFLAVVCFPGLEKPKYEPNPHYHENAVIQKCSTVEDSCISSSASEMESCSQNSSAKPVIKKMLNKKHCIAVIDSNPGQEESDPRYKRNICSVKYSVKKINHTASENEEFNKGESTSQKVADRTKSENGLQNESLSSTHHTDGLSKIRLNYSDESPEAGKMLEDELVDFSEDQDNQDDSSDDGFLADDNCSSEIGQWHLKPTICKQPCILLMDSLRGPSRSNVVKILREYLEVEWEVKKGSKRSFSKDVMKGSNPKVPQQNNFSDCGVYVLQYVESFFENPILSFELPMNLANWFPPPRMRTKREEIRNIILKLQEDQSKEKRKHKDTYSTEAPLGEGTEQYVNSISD
Nature of the test: SENP6 protease inhibitors, SAR follow-up, biochemical, luminescence, set 2 (AID 588598).

The target in test [4] is T4, Sentrin-specific protease 8 (Homo sapiens, UniProt Q96LD8).
T4 sequence (Q96LD8 whole entry): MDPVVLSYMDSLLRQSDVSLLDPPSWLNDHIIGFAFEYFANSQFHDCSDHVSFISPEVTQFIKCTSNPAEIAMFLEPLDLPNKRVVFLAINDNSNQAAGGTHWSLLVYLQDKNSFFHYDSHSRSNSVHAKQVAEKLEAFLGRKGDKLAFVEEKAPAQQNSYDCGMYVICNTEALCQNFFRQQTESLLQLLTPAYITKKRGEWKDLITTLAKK
Nature of the test: SENP8 protease inhibitors, SAR follow-up, biochemical, luminescence, set 2 (AID 588601).

Test [5] addresses Focal adhesion kinase 1 (Homo sapiens, UniProt Q05397).
The target of test [6] is Cyclin-dependent kinase 19 (Homo sapiens, UniProt Q9BWU1). Put plainly: Navigating the Kinome. Panel member name: CDC2L6.
Chain of Cyclin-dependent kinase 19 (Q9BWU1 whole entry): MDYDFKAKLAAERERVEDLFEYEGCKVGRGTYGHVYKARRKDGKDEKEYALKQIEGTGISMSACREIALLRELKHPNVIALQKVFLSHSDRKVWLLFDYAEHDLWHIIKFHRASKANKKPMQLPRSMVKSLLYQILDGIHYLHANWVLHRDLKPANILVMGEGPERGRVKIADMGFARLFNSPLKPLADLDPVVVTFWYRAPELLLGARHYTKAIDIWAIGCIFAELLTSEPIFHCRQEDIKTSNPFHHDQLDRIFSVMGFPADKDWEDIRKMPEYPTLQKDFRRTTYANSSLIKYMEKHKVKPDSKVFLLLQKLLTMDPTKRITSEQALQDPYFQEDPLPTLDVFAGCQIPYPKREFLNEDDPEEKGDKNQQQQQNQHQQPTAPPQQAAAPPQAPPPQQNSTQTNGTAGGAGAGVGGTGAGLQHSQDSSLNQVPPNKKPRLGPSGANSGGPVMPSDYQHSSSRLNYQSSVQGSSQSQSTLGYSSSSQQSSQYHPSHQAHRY
Test [7] can be described thus: HepG2 cell cytotoxicity, cytotoxicity control, set 6 (AID 602432). The settings on record: Mycobacterium tuberculosis.
A short description of test [8]: Vero cell cytotoxicity, cytotoxicity control for M. tuberculosis inhibitor project, purified and synthesized samples, set 8 (AID 602431). The settings on record: Mycobacterium tuberculosis.
The nature of test [9]: THP-1 cell cytotoxicity, cytotoxicity control, set 6 (AID 602433). The note with it: Mycobacterium tuberculosis.

Chain of Focal adhesion kinase 1 (Q05397 whole entry): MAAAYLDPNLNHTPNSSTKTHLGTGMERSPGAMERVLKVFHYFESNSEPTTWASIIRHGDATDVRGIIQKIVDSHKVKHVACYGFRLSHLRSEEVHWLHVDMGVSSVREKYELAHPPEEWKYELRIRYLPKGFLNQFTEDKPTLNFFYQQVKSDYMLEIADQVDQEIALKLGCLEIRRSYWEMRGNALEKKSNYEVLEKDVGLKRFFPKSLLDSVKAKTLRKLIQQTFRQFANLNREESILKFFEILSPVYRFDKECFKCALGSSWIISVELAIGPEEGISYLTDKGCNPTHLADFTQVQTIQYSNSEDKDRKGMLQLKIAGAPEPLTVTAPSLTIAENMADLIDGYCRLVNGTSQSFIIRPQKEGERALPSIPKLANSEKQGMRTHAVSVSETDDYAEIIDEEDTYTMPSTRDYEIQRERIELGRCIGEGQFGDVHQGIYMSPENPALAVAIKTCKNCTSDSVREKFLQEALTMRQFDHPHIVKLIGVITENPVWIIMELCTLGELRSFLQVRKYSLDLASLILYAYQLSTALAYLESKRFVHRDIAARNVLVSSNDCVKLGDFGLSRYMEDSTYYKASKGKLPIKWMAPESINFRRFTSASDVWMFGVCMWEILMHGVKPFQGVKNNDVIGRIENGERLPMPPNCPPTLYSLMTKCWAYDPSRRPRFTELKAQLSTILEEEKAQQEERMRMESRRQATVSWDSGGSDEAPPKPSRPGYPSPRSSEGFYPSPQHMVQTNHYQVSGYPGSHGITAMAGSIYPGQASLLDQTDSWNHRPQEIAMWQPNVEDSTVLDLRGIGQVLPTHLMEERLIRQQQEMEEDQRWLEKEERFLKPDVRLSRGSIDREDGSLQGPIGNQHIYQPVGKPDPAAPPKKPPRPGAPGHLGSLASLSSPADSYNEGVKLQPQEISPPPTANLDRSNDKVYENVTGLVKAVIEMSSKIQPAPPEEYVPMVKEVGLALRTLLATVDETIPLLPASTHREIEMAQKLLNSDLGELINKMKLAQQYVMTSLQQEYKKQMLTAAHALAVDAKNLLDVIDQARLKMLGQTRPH

For the molecule `Cc1[nH]c2ccccc2c1C(=O)C(=O)N1CCCCCC1`, the IC50 in [1], in test [2], in test [3] and in test [4] was > 99 µM (inactive) each time.

In the case of `COc1cccc(C(=O)Nc2cccc(-c3nc4sccn4c3-c3ccnc(Nc4ccc(N5CCOCC5)cc4)n3)c2)c1`, the Ki (commonly a measure of affinity in units of concentration, obtained from inhibition or displacement) is 0.631 µM (active) in [5] and 10 µM (active) in test [6].

In the case of `O=C(NCc1ccc(C(=O)N2CCC(c3ccccc3)CC2)cc1)NC1CCCCC1`, the CC50 – broadly, the concentration at which the toxic effect on the cells reaches its halfway point – in test [7] is > 50 µM (inconclusive); in test [8] it was 82.5 µM (active); in test [9], 65.8 µM (active).
